# Like-named read-outs stand apart in the source and are kept apart here.
# Biological target: DPP4 (Homo sapiens, UniProt P27487)
# Experiment: DPP4 activity assay (DPP4 inhibitor screening assay kit, Cayman);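 also: fluorescence read at excitation 360 nm and emission 460 nm after the enzyme reaction ran 30 min at 37 °C in a 96-well plate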
# Assay type: biochemical
# Design: purchased Cayman Chemical, Ann Arbor, MI, USA
# Settings: for remaining activity at 10 µM: 0.5 h
# [1] = 10 µM, control mean 100.0, Figure 1A raw data, read-out: DPP4 activity in library screen, Exp 1
# [2] = 10 µM, control mean 100.0, Figure 1A raw data, read-out: DPP4 activity in library screen, Exp 2
# [3] = 10 µM, control mean 100.0, Figure 1A raw data, read-out: DPP4 activity in library screen, Exp 3
# [4] = 10 µM, control mean 100.0, mean of Exp 1-3, read-out: DPP4 activity in library screen, Mean
# [5] = 10 µM, control mean 100.0, Figure 1A raw data
# [6] = 10 µM, control mean 100.0, mean of Exp 1-3
# [7] = read-out: DPP4 activity in library screen, Exp 1
# [8] = read-out: DPP4 activity in library screen, Exp 2
# [9] = read-out: DPP4 activity in library screen, Mean
# DPP4, sequence (P27487 whole entry): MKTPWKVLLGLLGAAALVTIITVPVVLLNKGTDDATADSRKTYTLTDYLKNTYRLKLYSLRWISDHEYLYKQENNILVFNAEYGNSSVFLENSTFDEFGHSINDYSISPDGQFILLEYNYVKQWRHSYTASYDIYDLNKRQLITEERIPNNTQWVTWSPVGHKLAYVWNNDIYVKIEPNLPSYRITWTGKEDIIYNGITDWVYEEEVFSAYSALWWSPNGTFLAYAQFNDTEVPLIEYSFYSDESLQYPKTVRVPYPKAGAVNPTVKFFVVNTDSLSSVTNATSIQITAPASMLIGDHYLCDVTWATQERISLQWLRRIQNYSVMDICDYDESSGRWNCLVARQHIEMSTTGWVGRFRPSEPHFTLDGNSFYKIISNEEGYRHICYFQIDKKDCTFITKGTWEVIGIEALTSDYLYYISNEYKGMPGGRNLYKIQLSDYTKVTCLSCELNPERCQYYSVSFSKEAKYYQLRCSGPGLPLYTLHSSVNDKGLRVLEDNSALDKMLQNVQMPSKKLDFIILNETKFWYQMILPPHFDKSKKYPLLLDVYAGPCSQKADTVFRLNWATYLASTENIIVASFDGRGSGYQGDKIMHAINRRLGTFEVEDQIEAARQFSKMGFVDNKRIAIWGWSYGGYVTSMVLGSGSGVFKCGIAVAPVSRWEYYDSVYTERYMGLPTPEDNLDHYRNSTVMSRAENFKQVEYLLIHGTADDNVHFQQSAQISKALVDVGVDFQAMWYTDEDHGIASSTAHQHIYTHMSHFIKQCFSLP
compound,measurement,setting,value
C[C@H]1[C@H](C)CC[C@]2(C(=O)O)CC[C@]3(C)C(=CC[C@@H]4[C@@]5(C)CC[C@H](O)C(C)(C)[C@@H]5CC[C@]43C)[C@H]12 [Ursolic Acid],remaining activity at 10 µM,[1],85.1%
same,remaining activity at 10 µM,[2],78.9%
same,remaining activity at 10 µM,[3],89.1%
same,remaining activity at 10 µM,[4],84.4%
O=C1CCC[C@@H]2[C@H]3CCCN4CCC[C@@H](CN12)[C@@H]34 [(+)-Matrine],"DPP4 activity in library screen, Exp 1",[5],101.6
same,"DPP4 activity in library screen, Exp 2",[5],98
same,"DPP4 activity in library screen, Exp 3",[5],94.4
same,"DPP4 activity in library screen, Mean",[6],98.0
"CC1(C)[C@@H](O[C@H]2O[C@H](C(=O)O)[C@@H](O)[C@H](O)[C@H]2O[C@@H]2O[C@H](C(=O)O)[C@@H](O)[C@H](O)[C@H]2O)CC[C@]2(C)[C@H]3C(=O)C=C4[C@@H]5C[C@@](C)(C(=O)O)CC[C@]5(C)CC[C@@]4(C)[C@]3(C)CC[C@@H]12 [Glycyrrhizin (Glycyrrhizic Acid), Glycyrrhizin]",remaining activity at 10 µM,[1],137%
same,remaining activity at 10 µM,[2],78.9%
same,remaining activity at 10 µM,[3],65.2%
same,remaining activity at 10 µM,[4],93.8%
C=C[C@H]1CN2CC[C@H]1C[C@H]2[C@H](O)c1ccnc2ccccc12 [Cinchonidine],remaining activity at 10 µM,[1],90.5%
same,remaining activity at 10 µM,[2],97.4%
same,remaining activity at 10 µM,[3],97.3%
same,remaining activity at 10 µM,[4],95.1%
C[C@@H]1O[C@@H](O[C@H]2[C@H](Oc3cc(O)c(C(=O)CCc4ccc(O)cc4)c(O)c3)O[C@H](CO)[C@@H](O)[C@@H]2O)[C@H](O)[C@H](O)[C@H]1O [Naringin Dihydrochalcone],"DPP4 activity in library screen, Exp 1",[5],84.3
same,"DPP4 activity in library screen, Exp 2",[5],82.4
same,"DPP4 activity in library screen, Exp 3",[5],91.6
same,"DPP4 activity in library screen, Mean",[6],86.1
CC[C@H](CC[C@@H](C)[C@H]1CC[C@H]2[C@@H]3CC=C4C[C@@H](O)CC[C@]4(C)[C@H]3CC[C@]12C)C(C)C [beta-sitosterol],remaining activity at 10 µM,[1],98.6%
same,remaining activity at 10 µM,[2],92.3%
same,remaining activity at 10 µM,[3],104%
same,remaining activity at 10 µM,[4],98.2%
O=C(/C=C/C=C/c1ccc2c(c1)OCO2)N1CCCCC1 [Piperine],remaining activity at 10 µM,[1],67.7%
same,remaining activity at 10 µM,[2],60.2%
same,remaining activity at 10 µM,[3],77.8%
same,remaining activity at 10 µM,[4],68.6%
CN(C)Cc1c[nH]c2ccccc12 [Gramine],remaining activity at 10 µM,[1],97.6%
same,remaining activity at 10 µM,[2],97.4%
same,remaining activity at 10 µM,[3],88.2%
same,remaining activity at 10 µM,[4],94.4%
"COc1ccc(CCC(=O)c2c(O)cc(O[C@@H]3O[C@H](CO)[C@@H](O)[C@H](O)[C@H]3O[C@@H]3O[C@@H](C)[C@H](O)[C@@H](O)[C@H]3O)cc2O)cc1O [Neohesperidin dihydrochalcone (Nhdc), Neohesperidin dihydrochalcone]",remaining activity at 10 µM,[1],90.3%
same,remaining activity at 10 µM,[2],78%
same,remaining activity at 10 µM,[3],91.2%
same,remaining activity at 10 µM,[4],86.5%
Cc1c(C(=O)NCCO)[n+]([O-])c2ccccc2[n+]1[O-] [Olaquindox],remaining activity at 10 µM,[1],77.8%
same,remaining activity at 10 µM,[2],99.1%
same,remaining activity at 10 µM,[3],116%
same,remaining activity at 10 µM,[4],97.8%
O=c1c(O)c(-c2ccc(O)c(O)c2)oc2cc(O)ccc12 [Fisetin],remaining activity at 10 µM,[1],72.3%
same,remaining activity at 10 µM,[2],74%
same,remaining activity at 10 µM,[3],51.8%
same,remaining activity at 10 µM,[4],66%
"C[C@H](CCC(=O)O)[C@H]1CC[C@H]2[C@@H]3C[C@H](O)[C@@H]4C[C@H](O)CC[C@]4(C)[C@H]3CC[C@]12C [Hyodeoxycholic acid (HDCA), Hyodeoxycholic acid]",remaining activity at 10 µM,[1],96.6%
same,remaining activity at 10 µM,[2],94.7%
same,remaining activity at 10 µM,[3],96.2%
same,remaining activity at 10 µM,[4],95.8%
"C[C@H]1[C@@H](O)O[C@@H]2O[C@@]3(C)CC[C@H]4[C@H](C)CC[C@@H]1[C@@]24OO3 [Dihydroartemisinin (DHA), Dihydroartemisinin]",remaining activity at 10 µM,[1],97.1%
same,remaining activity at 10 µM,[2],91%
same,remaining activity at 10 µM,[3],88.2%
same,remaining activity at 10 µM,[4],92.1%
"CC(C)[C@]12O[C@H]1[C@@H]1O[C@]13[C@]1(O[C@H]1C[C@H]1C4=C(CC[C@@]13C)C(=O)OC4)[C@@H]2O [Triptolide (PG490), Triptolide]",remaining activity at 10 µM,"read-out: DPP4 activity in library screen, Exp 1, 10 µM, control mean 100.0, Figure 1A raw data",98.7%
same,remaining activity at 10 µM,"read-out: DPP4 activity in library screen, Exp 2, 10 µM, control mean 100.0, Figure 1A raw data",94.9%
same,remaining activity at 10 µM,"read-out: DPP4 activity in library screen, Exp 3, 10 µM, control mean 100.0, Figure 1A raw data",109%
same,remaining activity at 10 µM,"read-out: DPP4 activity in library screen, Mean, 10 µM, control mean 100.0, mean of Exp 1-3",101%
COc1cc(C2Oc3cc([C@H]4Oc5cc(O)cc(O)c5C(=O)[C@@H]4O)ccc3OC2CO)ccc1O (some centres unmarked) [Silibinin],remaining activity at 10 µM,[1],65.1%
same,remaining activity at 10 µM,[2],76.8%
same,remaining activity at 10 µM,[3],67.3%
same,remaining activity at 10 µM,[4],69.7%
CC1(C)O[C@H]2CC(=O)OC[C@]23[C@H]2CC[C@@]4(C)[C@H](c5ccoc5)OC(=O)[C@H]5O[C@]54[C@]2(C)C(=O)C[C@@H]13 [Limonin],remaining activity at 10 µM,[1],104%
same,remaining activity at 10 µM,[2],106%
same,remaining activity at 10 µM,[3],91.4%
same,remaining activity at 10 µM,[4],101%
"Cc1cc(=O)oc2cc(O)ccc12 [4-Methylumbelliferone (4-MU), 4-Methylumbelliferone]","DPP4 activity in library screen, Mean",[6],auto-fluorescence
COc1ccc(-c2cc(=O)c3c(O)cc(O)cc3o2)cc1O [Diosmetin],remaining activity at 10 µM,[1],77.2%
same,remaining activity at 10 µM,[2],77.5%
same,remaining activity at 10 µM,[3],77.6%
same,remaining activity at 10 µM,[4],77.4%
C=C1C[C@@]2(O)O[C@@]3(C[C@H]2C(C)C)[C@@H](C)CC[C@@H]13 [Curcumol],"DPP4 activity in library screen, Exp 1",[5],100.6
same,"DPP4 activity in library screen, Exp 2",[5],99.6
same,"DPP4 activity in library screen, Exp 3",[5],110.6
same,"DPP4 activity in library screen, Mean",[6],103.6
CCn1cc(C(=O)O)c(=O)c2ccc(C)nc21 [Nalidixic acid],remaining activity at 10 µM,[1],95.6%
same,remaining activity at 10 µM,[2],94.7%
same,remaining activity at 10 µM,[3],93.5%
same,remaining activity at 10 µM,[4],94.6%
O=c1c(O)c(-c2cc(O)c(O)c(O)c2)oc2cc(O)cc(O)c12 [Myricetin],"DPP4 activity in library screen, Exp 2",[5],57.5
same,"DPP4 activity in library screen, Mean",[6],57.9
OCc1ccccc1O[C@@H]1O[C@H](CO)[C@@H](O)[C@H](O)[C@H]1O [Salicin],remaining activity at 10 µM,[1],72%
same,remaining activity at 10 µM,[2],94.5%
same,remaining activity at 10 µM,[3],87.9%
same,remaining activity at 10 µM,[4],84.8%
O=c1cc(-c2ccccc2)oc2cc(O)cc(O)c12 [Chrysin],remaining activity at 10 µM,[1],85.4%
same,remaining activity at 10 µM,[2],87.6%
same,remaining activity at 10 µM,[3],71.2%
same,remaining activity at 10 µM,[4],81.4%
O=c1cc(-c2ccc(O)cc2)oc2cc(O)cc(O)c12 [Apigenin],remaining activity at 10 µM,[1],97.4%
same,remaining activity at 10 µM,[2],70.3%
same,remaining activity at 10 µM,[3],67.8%
same,remaining activity at 10 µM,[4],78.5%
C=C1CC[C@@H]2[C@](C)(CO)[C@H](O)CC[C@@]2(C)[C@@H]1C/C=C1/C(=O)OC[C@H]1O [Andrographolide],remaining activity at 10 µM,[1],103%
same,remaining activity at 10 µM,[2],100%
same,remaining activity at 10 µM,[3],96.8%
same,remaining activity at 10 µM,[4],100%
C[C@H]1[C@H](OC(=O)CCC(=O)O)O[C@@H]2O[C@@]3(C)CC[C@H]4[C@H](C)CC[C@@H]1[C@@]24OO3 [Artesunate],remaining activity at 10 µM,[1],95.1%
same,remaining activity at 10 µM,[2],99%
same,remaining activity at 10 µM,[3],87%
same,remaining activity at 10 µM,[4],93.7%
COC1=C[C@@H]2[C@@H]3Cc4ccc(OC)c(O)c4[C@]2(CCN3C)CC1=O [Sinomenine],remaining activity at 10 µM,[7],103%
same,remaining activity at 10 µM,[8],93.4%
same,remaining activity at 10 µM,[9],104%
O=C(O[C@@H]1Cc2c(O)cc(O)cc2O[C@@H]1c1cc(O)c(O)c(O)c1)c1cc(O)c(O)c(O)c1 [(-)-Epigallocatechin Gallate],remaining activity at 10 µM,[1],100%
same,remaining activity at 10 µM,[2],90.2%
same,remaining activity at 10 µM,[3],81.9%
same,remaining activity at 10 µM,[4],90.8%
O=c1cccc2n1C[C@@H]1CNC[C@H]2C1 [Cytisine],remaining activity at 10 µM,[7],90.3%
same,remaining activity at 10 µM,[8],91%
same,remaining activity at 10 µM,"read-out: DPP4 activity in library screen, Exp 3",109%
same,remaining activity at 10 µM,[9],96.7%
Myricitrin,"DPP4 activity in library screen, Exp 1",[5],67
same,"DPP4 activity in library screen, Exp 2",[5],70.2
same,"DPP4 activity in library screen, Exp 3",[5],70.2
same,"DPP4 activity in library screen, Mean",[6],69.1
COc1ccc(-c2oc3c(CC=C(C)C)c(O[C@@H]4O[C@H](CO)[C@@H](O)[C@H](O)[C@H]4O)cc(O)c3c(=O)c2O[C@@H]2O[C@@H](C)[C@H](O)[C@@H](O)[C@H]2O)cc1 [Icariin],remaining activity at 10 µM,[1],76%
same,remaining activity at 10 µM,[2],74.5%
same,remaining activity at 10 µM,[3],78.7%
same,remaining activity at 10 µM,[4],76.4%
C[C@@H]1O[C@@H](OC[C@H]2O[C@@H](Oc3c(-c4ccc(O)c(O)c4)oc4cc(O)cc(O)c4c3=O)[C@H](O)[C@@H](O)[C@@H]2O)[C@H](O)[C@H](O)[C@H]1O [Rutin],remaining activity at 10 µM,[1],78.7%
same,remaining activity at 10 µM,[2],73.8%
same,remaining activity at 10 µM,[3],50.1%
same,remaining activity at 10 µM,[4],67.5%
COc1cc(C(C)=O)ccc1O [Apocynin],remaining activity at 10 µM,[1],82.6%
same,remaining activity at 10 µM,[2],90.9%
same,remaining activity at 10 µM,[3],116%
same,remaining activity at 10 µM,[4],96.6%
O=C(O)C1=C[C@@H](O)[C@@H](O)[C@H](O)C1 [Shikimic Acid],remaining activity at 10 µM,[1],87.3%
same,remaining activity at 10 µM,[2],80.7%
same,remaining activity at 10 µM,[3],84.9%
same,remaining activity at 10 µM,[4],84.3%
C/C=C1/[C@H](O[C@@H]2O[C@H](CO)[C@@H](O)[C@H](O)[C@H]2O)OC=C(C(=O)OC)[C@H]1CC(=O)OCCc1ccc(O)c(O)c1 [Oleuropein],remaining activity at 10 µM,[1],117%
same,remaining activity at 10 µM,[2],101%
same,remaining activity at 10 µM,[3],93.4%
same,remaining activity at 10 µM,[4],104%

# From PMC5428354, “Screening of a natural compound library identifies emodin, a natural compound from Rheum palmatum Linn that inhibits DPP4” (PeerJ, 2017)
